System: MV-4-11 cells
Test: Gene expression microarray analysis (Affymetrix PrimeView) and GSEA
Format: cell-based, human
Set-up: RFU PODN (11730768_x_at) / Fold change /veh PODN (11730768_x_at) / RFU LINC00158 (11744669_a_at) / Fold change /veh LINC00158 (11744669_a_at) / RFU DUSP10 (11751237_a_at) / Fold change /veh DUSP10 (11751237_a_at) / RFU ID3 (11757404_x_at) / Fold change /veh ID3 (11757404_x_at) / RFU PLEKHG5 (11737974_s_at) / Fold change /veh PLEKHG5 (11737974_s_at) / RFU LRRC4B (11730491_at) / Fold change /veh LRRC4B (11730491_at) / RFU GIMAP4 (11747438_a_at) / Fold change /veh GIMAP4 (11747438_a_at) / RFU KRT8 (11758183_x_at) / Fold change /veh KRT8 (11758183_x_at) / RFU CNN1 (11734310_a_at) / Fold change /veh CNN1 (11734310_a_at) / RFU VPS37D (11726825_at) / Fold change /veh VPS37D (11726825_at) / RFU C10orf10 (11716522_x_at) / Fold change /veh C10orf10 (11716522_x_at) / RFU KIR2DL2 /// KIR2DL4 /// KIR2DL5A /// KIR2DL5B /// KIR2DS1 /// KIR2DS2 /// KIR2DS3 /// KIR2DS4 /// KIR3DL3 /// KIR3DL3 /// KIR3DS1 (11738374_at) / Fold change /veh KIR2DL2 /// KIR2DL4 /// KIR2DL5A /// KIR2DL5B /// KIR2DS1 /// KIR2DS2 /// KIR2DS3 /// KIR2DS4 /// KIR3DL3 /// KIR3DL3 /// KIR3DS1 (11738374_at) / RFU C1QL1 (11718748_at) / Fold change /veh C1QL1 (11718748_at) / RFU TMPRSS4 (11747572_a_at) / Fold change /veh TMPRSS4 (11747572_a_at) / RFU HAMP (11756126_x_at) / Fold change /veh HAMP (11756126_x_at) / RFU RNFT2 (11725882_a_at) / Fold change /veh RNFT2 (11725882_a_at) / RFU NR4A2 (11747474_a_at) / Fold change /veh NR4A2 (11747474_a_at) / RFU ABCC12 (11746883_a_at) / Fold change /veh ABCC12 (11746883_a_at) / RFU TMEM136 (11760407_x_at) / Fold change /veh TMEM136 (11760407_x_at) / RFU CLDN22 /// WWC2 (11732394_at) / Fold change /veh CLDN22 /// WWC2 (11732394_at) / RFU HLA-DPB1 (11760878_x_at) / Fold change /veh HLA-DPB1 (11760878_x_at) / RFU SPINT1 (11716480_a_at) / Fold change /veh SPINT1 (11716480_a_at) / RFU GAP43 (11754022_s_at) / Fold change /veh GAP43 (11754022_s_at) / RFU A4GNT (11735810_at) / Fold change /veh A4GNT (11735810_at) / RFU PRB3 (11715151_x_at) / Fold change /veh PRB3 (11715151_x_at) / RFU TUBB4B (11761932_at) / Fold change /veh TUBB4B (11761932_at) / RFU CAPN14 (11732068_a_at) / Fold change /veh CAPN14 (11732068_a_at) / RFU TMCC2 (11721928_a_at) / Fold change /veh TMCC2 (11721928_a_at) / RFU IRGQ (11745062_a_at) / Fold change /veh IRGQ (11745062_a_at) / RFU FAM174B (11720279_a_at) / Fold change /veh FAM174B (11720279_a_at) / RFU TMPRSS4 (11748680_a_at) / Fold change /veh TMPRSS4 (11748680_a_at) / RFU FAM212B (11763350_a_at) / Fold change /veh FAM212B (11763350_a_at) / RFU PLEKHG5 (11743358_a_at) / Fold change /veh PLEKHG5 (11743358_a_at) / RFU ZSCAN30 (11745921_a_at) / Fold change /veh ZSCAN30 (11745921_a_at) / RFU CMKLR1 (11741424_a_at) / Fold change /veh CMKLR1 (11741424_a_at) / RFU LOC101060620 /// MAPK8IP1 (11723275_at) / Fold change /veh LOC101060620 /// MAPK8IP1 (11723275_at) / RFU SPTSSB (11747773_x_at) / Fold change /veh SPTSSB (11747773_x_at) / RFU PRSS12 (11739890_at) / Fold change /veh PRSS12 (11739890_at) / RFU BIN1 (11741810_x_at) / Fold change /veh BIN1 (11741810_x_at) / RFU WNT11 (11732464_a_at) / Fold change /veh WNT11 (11732464_a_at) / RFU C10orf10 (11716521_a_at) / Fold change /veh C10orf10 (11716521_a_at) / RFU C5orf56 (11738089_at) / Fold change /veh C5orf56 (11738089_at) / RFU CYB561 (11721691_x_at) / Fold change /veh CYB561 (11721691_x_at) / RFU ANKRD19P (11752326_a_at) / Fold change /veh ANKRD19P (11752326_a_at) / RFU OR2T12 /// OR2T33 /// OR2T8 (11738714_s_at) / Fold change /veh OR2T12 /// OR2T33 /// OR2T8 (11738714_s_at) / RFU VCAN (11748164_a_at) / Fold change /veh VCAN (11748164_a_at) / RFU JSRP1 (11732532_at) / Fold change /veh JSRP1 (11732532_at) / RFU KRTAP10-11 (11738290_x_at) / Fold change /veh KRTAP10-11 (11738290_x_at) / RFU MYO3A (11730013_a_at) / Fold change /veh MYO3A (11730013_a_at) / RFU EBF3 (11725865_a_at) / Fold change /veh EBF3 (11725865_a_at) / RFU CAMK2N1 (11719241_x_at) / Fold change /veh CAMK2N1 (11719241_x_at) / RFU C5orf56 (11738088_a_at) / Fold change /veh C5orf56 (11738088_a_at) / RFU OLFML3 (11715873_a_at) / Fold change /veh OLFML3 (11715873_a_at) / RFU LOC100653217 /// NTM (11731650_a_at) / Fold change /veh LOC100653217 /// NTM (11731650_a_at) / RFU MAPK11 (11762145_a_at) / Fold change /veh MAPK11 (11762145_a_at) / RFU FIZ1 (11724087_x_at) / Fold change /veh FIZ1 (11724087_x_at) / RFU OASL (11726364_x_at) / Fold change /veh OASL (11726364_x_at) / RFU SOX15 (11748057_x_at) / Fold change /veh SOX15 (11748057_x_at) / RFU CD79A (11719716_a_at) / Fold change /veh CD79A (11719716_a_at) / RFU HIST1H1D (11736915_at) / Fold change /veh HIST1H1D (11736915_at) / RFU CASKIN2 (11723855_a_at) / Fold change /veh CASKIN2 (11723855_a_at) / RFU LOC730098 (11760151_x_at) / Fold change /veh LOC730098 (11760151_x_at) / RFU OR4N2 (11742367_at) / Fold change /veh OR4N2 (11742367_at) / RFU PRRT2 (11749266_a_at) / Fold change /veh PRRT2 (11749266_a_at) / RFU SNX32 (11753110_a_at) / Fold change /veh SNX32 (11753110_a_at) / RFU CDHR5 (11726645_a_at) / Fold change /veh CDHR5 (11726645_a_at) / RFU RCAN1 (11760418_a_at) / Fold change /veh RCAN1 (11760418_a_at) / RFU FAM167A (11723789_a_at) / Fold change /veh FAM167A (11723789_a_at) / RFU FAM26E (11764081_at) / Fold change /veh FAM26E (11764081_at) / RFU ISYNA1 (11749810_s_at) / Fold change /veh ISYNA1 (11749810_s_at) / RFU ACY1 (11761880_at) / Fold change /veh ACY1 (11761880_at) / RFU 11764098_at / Fold change /veh 11764098_at / RFU SAMD14 (11745864_x_at) / Fold change /veh SAMD14 (11745864_x_at) / RFU NPB (11741838_a_at) / Fold change /veh NPB (11741838_a_at) / RFU TMPRSS6 (11731388_a_at) / Fold change /veh TMPRSS6 (11731388_a_at) / RFU KRTAP10-2 (11738614_at) / Fold change /veh KRTAP10-2 (11738614_at) / RFU ARHGAP8 /// PRR5-ARHGAP8 (11727945_x_at) / Fold change /veh ARHGAP8 /// PRR5-ARHGAP8 (11727945_x_at) / RFU KRTAP5-7 /// NADSYN1 (11734609_at) / Fold change /veh KRTAP5-7 /// NADSYN1 (11734609_at) / RFU RASL12 (11751679_a_at) / Fold change /veh RASL12 (11751679_a_at) / RFU CDKN2B (11736163_a_at) / Fold change /veh CDKN2B (11736163_a_at) / RFU PRF1 (11729649_at) / Fold change /veh PRF1 (11729649_at) / RFU, ZNF638 /// ZNF638-IT1 / Fold change vs veh, ZNF638 /// ZNF638-IT1 / RFU, PANK3 / Fold change vs veh, PANK3 / RFU, SH3YL1 / Fold change vs veh, SH3YL1 / RFU, ZEB2 / Fold change vs veh, ZEB2 / RFU, NRIP1 / Fold change vs veh, NRIP1 / RFU, PTTG1IP / Fold change vs veh, PTTG1IP / RFU, CAPN2 / Fold change vs veh, CAPN2 / RFU, MED14 / Fold change vs veh, MED14 / RFU, SNORA58 / Fold change vs veh, SNORA58 / RFU, C1orf63 / Fold change vs veh, C1orf63 / RFU, LRRFIP1 / Fold change vs veh, LRRFIP1 / RFU, NDUFAF7 / Fold change vs veh, NDUFAF7 / RFU, SLC12A2 / Fold change vs veh, SLC12A2 / RFU, IBTK / Fold change vs veh, IBTK / RFU, ESF1 / Fold change vs veh, ESF1 / Fold change vs veh, TMEM50B / RFU, TAOK1 / Fold change vs veh, TAOK1 / RFU, ACBD3 / Fold change vs veh, ACBD3 / RFU, TMA16 / Fold change vs veh, TMA16 / RFU, RWDD3 / Fold change vs veh, RWDD3 / RFU, BCAT1 / Fold change vs veh, BCAT1 / RFU, EDEM3 / Fold change vs veh, EDEM3 / RFU, TMEM33 / Fold change vs veh, TMEM33 / RFU, WDR75 / Fold change vs veh, WDR75 / RFU, AHCTF1 / Fold change vs veh, AHCTF1 / RFU, TFRC / Fold change vs veh, TFRC / RFU, ZDHHC17 / Fold change vs veh, ZDHHC17 / RFU, NOM1 / Fold change vs veh, NOM1 / RFU, ARL8B / Fold change vs veh, ARL8B / RFU, ZBTB11 / Fold change vs veh, ZBTB11 / RFU, TAMM41 / Fold change vs veh, TAMM41 / RFU, KIAA1704 /// LOC100996395 / Fold change vs veh, KIAA1704 /// LOC100996395 / RFU, ING1 / Fold change vs veh, ING1 / RFU, TRMT61B / Fold change vs veh, TRMT61B / RFU, FUBP3 / Fold change vs veh, FUBP3 / RFU, TP53 / Fold change vs veh, TP53 / RFU, TNKS2 / Fold change vs veh, TNKS2 / RFU, ZFP14 / Fold change vs veh, ZFP14 / RFU, ACTR2 / Fold change vs veh, ACTR2 / RFU, PPP3R1 / Fold change vs veh, PPP3R1 / RFU, PIK3R1 / Fold change vs veh, PIK3R1 / RFU, HNRNPA1 / Fold change vs veh, HNRNPA1 / RFU, RNF170 / Fold change vs veh, RNF170 / RFU, ZNF28 / Fold change vs veh, ZNF28 / RFU, RNGTT / Fold change vs veh, RNGTT / RFU, OGT / Fold change vs veh, OGT / RFU, BRD1 / Fold change vs veh, BRD1 / RFU, MARS / Fold change vs veh, MARS / RFU, ZNF655 / Fold change vs veh, ZNF655 / RFU, FAHD1 / Fold change vs veh, FAHD1 / RFU, BDP1 / Fold change vs veh, BDP1 / RFU, LRRCC1 / Fold change vs veh, LRRCC1 / RFU, ARID1A / Fold change vs veh, ARID1A / RFU, ZNF146 / Fold change vs veh, ZNF146 / RFU, ZNF330 / Fold change vs veh, ZNF330 / RFU, GPN3 / Fold change vs veh, GPN3 / RFU, C9orf123 / Fold change vs veh, C9orf123 / RFU, N4BP2L2 / Fold change vs veh, N4BP2L2 / RFU, ARFIP1 / Fold change vs veh, ARFIP1 / RFU, FAM179B / Fold change vs veh, FAM179B / RFU, BCL10 / Fold change vs veh, BCL10 / RFU, UHRF1BP1L / Fold change vs veh, UHRF1BP1L / RFU, BET1 / Fold change vs veh, BET1 / RFU, CNOT2 / Fold change vs veh, CNOT2 / RFU, ZNF268 / Fold change vs veh, ZNF268 / Fold change vs veh, ZNF507 / RFU, DGCR2 / Fold change vs veh, DGCR2 / RFU, WDSUB1 / Fold change vs veh, WDSUB1 / Fold change vs veh, HSP90B1 /// MIR3652 / RFU, ADSS / Fold change vs veh, ADSS / RFU, GK / Fold change vs veh, GK / RFU, ZNF148 / Fold change vs veh, ZNF148 / RFU, TAF9 / Fold change vs veh, TAF9 / RFU, SLC1A5 / Fold change vs veh, SLC1A5 / RFU, SLMO2 / Fold change vs veh, SLMO2 / RFU, ABCC4 / Fold change vs veh, ABCC4 / RFU, LOC101060439 /// RAP1B / Fold change vs veh, LOC101060439 /// RAP1B / RFU, RFX7 / Fold change vs veh, RFX7 / RFU, GTPBP10 / Fold change vs veh, GTPBP10 / RFU, CNEP1R1 / Fold change vs veh, CNEP1R1 / RFU, BIVM-ERCC5 /// ERCC5 / Fold change vs veh, BIVM-ERCC5 /// ERCC5 / RFU, ILF3 / Fold change vs veh, ILF3 / RFU 11762660_at / Fold change /veh 11762660_at / RFU VCAN (11757783_s_at) / Fold change /veh VCAN (11757783_s_at) / RFU DDX43 (11728927_at) / Fold change /veh DDX43 (11728927_at) / RFU KRT8 (11758188_x_at) / Fold change /veh KRT8 (11758188_x_at) / RFU NKD1 (11759106_at) / Fold change /veh NKD1 (11759106_at) / RFU SRD5A1 (11742802_a_at) / Fold change /veh SRD5A1 (11742802_a_at) / RFU TPSAB1 /// TPSB2 (11721975_s_at) / Fold change /veh TPSAB1 /// TPSB2 (11721975_s_at) / RFU GSTM3 (11746129_a_at) / Fold change /veh GSTM3 (11746129_a_at) / RFU IL23R (11737362_x_at) / Fold change /veh IL23R (11737362_x_at) / RFU TMEM51 (11727254_a_at) / Fold change /veh TMEM51 (11727254_a_at) / RFU PIWIL2 (11732686_x_at) / Fold change /veh PIWIL2 (11732686_x_at) / RFU ORM1 (11744905_x_at) / Fold change /veh ORM1 (11744905_x_at) / RFU CCDC152 (11743942_at) / Fold change /veh CCDC152 (11743942_at) / RFU ECM1 (11717891_a_at) / Fold change /veh ECM1 (11717891_a_at) / RFU IL23R (11748794_a_at) / Fold change /veh IL23R (11748794_a_at) / RFU TNFAIP8L3 (11732012_x_at) / Fold change /veh TNFAIP8L3 (11732012_x_at) / RFU MBOAT4 (11741988_at) / Fold change /veh MBOAT4 (11741988_at) / RFU 11764193_at / Fold change /veh 11764193_at / RFU TMEM53 (11763286_at) / Fold change /veh TMEM53 (11763286_at) / RFU MAGEB2 (11727129_at) / Fold change /veh MAGEB2 (11727129_at) / RFU TMEM200A (11744735_a_at) / Fold change /veh TMEM200A (11744735_a_at) / RFU CCDC152 (11751479_a_at) / Fold change /veh CCDC152 (11751479_a_at) / RFU FAM211A (11726209_a_at) / Fold change /veh FAM211A (11726209_a_at) / RFU RGS16 (11746705_a_at) / Fold change /veh RGS16 (11746705_a_at) / RFU VCAN (11755009_s_at) / Fold change /veh VCAN (11755009_s_at) / RFU RHOB (11743442_s_at) / Fold change /veh RHOB (11743442_s_at) / RFU RGS16 (11720943_a_at) / Fold change /veh RGS16 (11720943_a_at) / RFU RGS16 (11720944_at) / Fold change /veh RGS16 (11720944_at) / RFU, VPS4B / Fold change vs veh, VPS4B / RFU, CREB1 / Fold change vs veh, CREB1 / RFU, DNAJC13 / Fold change vs veh, DNAJC13 / RFU, GNAQ / Fold change vs veh, GNAQ / RFU, CDK5R1 / Fold change vs veh, CDK5R1 / RFU, ZRANB3 / Fold change vs veh, ZRANB3 / RFU, CUL4A / Fold change vs veh, CUL4A / RFU, CCNY / Fold change vs veh, CCNY / RFU, UFL1 / Fold change vs veh, UFL1 / RFU, COG3 / Fold change vs veh, COG3 / RFU, DIAPH2 / Fold change vs veh, DIAPH2 / RFU, SKA2 / Fold change vs veh, SKA2 / RFU, AFF3 / Fold change vs veh, AFF3 / RFU, LMF1 / Fold change vs veh, LMF1 / RFU, IPO11 / Fold change vs veh, IPO11 / RFU, DFFB / Fold change vs veh, DFFB / RFU, FOXP1 / Fold change vs veh, FOXP1 / RFU, CARD8 / Fold change vs veh, CARD8 / RFU, STRN3 / Fold change vs veh, STRN3 / RFU, ADK / Fold change vs veh, ADK / RFU, RASSF2 / Fold change vs veh, RASSF2 / RFU, WIPF1 / Fold change vs veh, WIPF1 / RFU, LARP1B / Fold change vs veh, LARP1B / RFU, RASA1 / Fold change vs veh, RASA1 / RFU, RB1 / Fold change vs veh, RB1 / RFU, PPFIA1 / Fold change vs veh, PPFIA1 / RFU, MAT2A / Fold change vs veh, MAT2A / RFU, CCT5 / Fold change vs veh, CCT5 / RFU, WDR92 / Fold change vs veh, WDR92 / RFU, CUX1 / Fold change vs veh, CUX1 / RFU, TTC7A / Fold change vs veh, TTC7A / RFU, TMEM135 / Fold change vs veh, TMEM135 / RFU, DEPTOR / Fold change vs veh, DEPTOR / RFU, CPM / Fold change vs veh, CPM / RFU, DNAJB6 / Fold change vs veh, DNAJB6 / RFU, CACNA2D3 / Fold change vs veh, CACNA2D3 / RFU, DTX4 / Fold change vs veh, DTX4 / RFU, TFCP2 / Fold change vs veh, TFCP2 / RFU, GMCL1 /// GMCL1P1 / Fold change vs veh, GMCL1 /// GMCL1P1 / RFU, AEBP2 / Fold change vs veh, AEBP2 / RFU, SNHG1 /// SNORD22 /// SNORD25 /// SNORD26 /// SNORD27 /// SNORD28 /// SNORD29 /// SNORD31 / Fold change vs veh, SNHG1 /// SNORD22 /// SNORD25 /// SNORD26 /// SNORD27 /// SNORD28 /// SNORD29 /// SNORD31 / Fold change (Aza/veh), C12orf56 (ProbeSet 11735607_a_at) / Fold change (ACY-1035/veh), C12orf56 (ProbeSet 11735607_a_at) / Fold change (Aza/veh), FGFR1OP (ProbeSet 11751329_s_at) / Fold change (ACY-1035/veh), FGFR1OP (ProbeSet 11751329_s_at) / Fold change (Aza/veh), VPS36 (ProbeSet 11739960_a_at) / Fold change (ACY-1035/veh), VPS36 (ProbeSet 11739960_a_at) / RFU SYPL1 (11715823_x_at) / Fold change /veh SYPL1 (11715823_x_at) / RFU IGFBP7 (11715501_s_at) / Fold change /veh IGFBP7 (11715501_s_at) / RFU REEP3 (11722064_at) / Fold change /veh REEP3 (11722064_at) / RFU IGLL1 (11728026_x_at) / Fold change /veh IGLL1 (11728026_x_at): dose or concentration left out as unconfirmed
Conditions: ProbeSet 11717914_a_at; LIST B

Nc1ncn([C@@H]2O[C@H](CO)[C@@H](O)[C@H]2O)c(=O)n1 [azacitidine]
Fold change vs veh, BIVM-ERCC5 /// ERCC5: 0.92

— PMC5218480 (PLoS ONE, 2017)
